Assay results published in ChEMBL document CHEMBL1152732, “Pharmacodynamics and pharmacokinetics studies of phenoxazinium derivatives for antimalarial agent” (Bioorg Med Chem, 2009).
The source made the active and inactive calls. The calls are words filed in the database; no cut-off is given here.

Assays:
[1] = tested on: Mus musculus; assay: Toxicity in Plasmodium berghei NK65-infected ICR mice (Mus musculus) assessed as death at 20 mg/kg/day, intraperitoneally administered 24 hrs after infection for 3 consecutive days measured 4 days postinfection; assay type: organism-based; design: route intraperitoneal; conditions: in vivo, ip, 96 h
[2] = tested on: Plasmodium berghei; assay: Antimalarial activity as mean survival days against Plasmodium berghei NK65 infected ICR mice (Mus musculus) at 10 mg/kg/day intraperitoneal dose 24 hrs post infection; assay type: functional
[3] = tested on: Plasmodium berghei; assay: Antimalarial activity as mean survival days against Plasmodium berghei NK65 infected ICR mice (Mus musculus) at 30 mg/kg/day peroral dose; assay type: functional; conditions: route oral
[4] = tested on: Plasmodium berghei; assay: Antimalarial activity as reduced parasitaemia against Plasmodium berghei NK65 infected ICR mice (Mus musculus) at 30 mg/kg/day peroral dose at day 4; assay type: functional; design: scale not given: the % may be the effect or the level left; conditions: route oral
[5] = tested on: Plasmodium berghei; assay: Antimalarial activity at day 4 against Plasmodium berghei NK65 infected ICR mice (Mus musculus) as reduced parasitaemia at 10 mg/kg/day intraperitoneal dose 24 hrs post infection; assay type: functional; design: scale not given: the % may be the effect or the level left
[6] = tested on: Plasmodium berghei; assay: Antimalarial activity as reduced parasitaemia at day 4 against Plasmodium berghei NK65 infected ICR mice (Mus musculus) at 100 mg/kg/day peroral dose for 3 days; assay type: functional; design: scale not given: the % may be the effect or the level left; conditions: route oral
[7] = tested on: Plasmodium berghei; assay: Antimalarial activity as mean survival days against Plasmodium berghei NK65 infected ICR mice (Mus musculus) at 20 mg/kg/day intraperitoneal dose; assay type: functional
[8] = tested on: Plasmodium berghei; assay: Antimalarial activity as reduced parasitaemia against Plasmodium berghei NK65 infected ICR mice (Mus musculus) at 20 mg/kg/day intraperitoneal dose at day 4; assay type: functional; design: scale not given: the % may be the effect or the level left
[9] = tested on: Plasmodium berghei; assay: Antimalarial activity as mean survival days against Plasmodium berghei NK65 infected ICR mice (Mus musculus) at 100 mg/kg/day peroral dose at day 4; assay type: functional; conditions: route oral
[10] = Half life in Wistar rat at 4 mg/kg, iv administered as single dose; assay type: ADME, organism-based; design: dose 4 mg/kg, route intravenous; conditions: in vivo
[11] = Clearance in Wistar rat at 4 mg/kg, iv administered as single dose; assay type: ADME, organism-based; design: dose 4 mg/kg, route intravenous; conditions: in vivo
[12] = tested on: Plasmodium berghei; assay: Antimalarial activity as reduced parasitaemia against Plasmodium berghei NK65 infected ICR mice (Mus musculus) at 4 mg/kg intravenous dose at day 4; assay type: functional; design: scale not given: the % may be the effect or the level left
[13] = Oral bioavailability in Wistar rat at 30 mg/kg administered as single dose; assay type: ADME, organism-based; conditions: in vivo
[14] = tested on: Plasmodium berghei; assay: (§1) Antimalarial activity as reduced parasitaemia at day 6 against Plasmodium berghei NK65 infected ICR mice (Mus musculus) at 30 mg/kg/day peroral dose for 3 days; assay type: functional, organism-based
[15] = Oral bioavailability in Wistar rat at 4 mg/kg administered as single dose; assay type: ADME, organism-based; conditions: in vivo
[16] = tested on: Rattus norvegicus; assay: Apparent volume of distribution in Wistar rat at 30 mg/kg, po administered as single dose; assay type: ADME, organism-based; design: dose 30 mg/kg, route oral; conditions: in vivo
[17] = Tmax in Wistar rat at 4 mg/kg, po administered as single dose; assay type: ADME, organism-based; design: dose 4 mg/kg, route oral; conditions: in vivo
[18] = Half life in Wistar rat at 30 mg/kg, po administered as single dose; assay type: ADME, organism-based; design: dose 30 mg/kg, route oral; conditions: in vivo
[19] = Clearance in Wistar rat at 30 mg/kg, po administered as single dose; assay type: ADME, organism-based; design: dose 30 mg/kg, route oral; conditions: in vivo
[20] = tested on: Plasmodium berghei; assay: Antimalarial activity as reduced parasitaemia against Plasmodium berghei NK65 infected ICR mice (Mus musculus) at 30 mg/kg peroral dose at day 4; assay type: functional; design: scale not given: the % may be the effect or the level left; conditions: route oral
[21] = tested on: Plasmodium berghei; assay: Antimalarial activity as reduced parasitaemia against Plasmodium berghei NK65 infected ICR mice (Mus musculus) at 4 mg/kg peroral dose at day 4; assay type: functional; design: scale not given: the % may be the effect or the level left; conditions: route oral
[22] = tested on: Plasmodium falciparum; assay: Antimalarial activity against chloroquine and pyrimethamine-resistant Plasmodium falciparum K1; assay type: functional, organism-based
[23] = Plasma concentration in fasted Wistar rat at 30 mg/kg/day, po after 49 hrs by HPLC; assay type: ADME, organism-based; design: route oral
[24] = Plasma concentration in fasted Wistar rat at 30 mg/kg, po administered as single dose after 2 hrs by HPLC; assay type: ADME, organism-based; design: dose 30 mg/kg, route oral
[25] = tested on: Plasmodium berghei; assay: Antimalarial activity as reduced parasitaemia at day 7 against Plasmodium berghei NK65 infected ICR mice (Mus musculus) at 30 mg/kg/day peroral dose for 3 days; assay type: functional, organism-based
[26] = tested on: Plasmodium berghei; assay: Antimalarial activity as recurrence of parasitaemia at day 5 in Plasmodium berghei NK65 infected ICR mice (Mus musculus) at 4 mg/kg/day peroral dose for 3 days; assay type: functional, organism-based
[27] = Plasma concentration in fasted Wistar rat at 30 mg/kg, po after 1 hr by HPLC; assay type: ADME, organism-based; design: dose 30 mg/kg, route oral
[28] = Clearance in Wistar rat at 4 mg/kg, po administered as single dose; assay type: ADME, organism-based; design: dose 4 mg/kg, route oral; conditions: in vivo
[29] = Plasma concentration in Wistar rat at 4 mg/kg, iv administered as single dose after 4 hrs by HPLC; assay type: ADME, organism-based; design: dose 4 mg/kg, route intravenous
[30] = Plasma concentration in fasted Wistar rat at 30 mg/kg/day, po after 25 hrs by HPLC; assay type: ADME, organism-based; design: route oral
[31] = Half life in Wistar rat at 4 mg/kg, po administered as single dose; assay type: ADME, organism-based; design: dose 4 mg/kg, route oral; conditions: in vivo
[32] = Plasma concentration in fasted Wistar rat at 4 mg/kg, po administered as single dose after 1 hr by HPLC; assay type: ADME, organism-based; design: dose 4 mg/kg, route oral
[33] = Plasma concentration in Wistar rat at 4 mg/kg, iv administered as single dose after 10 mins by HPLC; assay type: ADME, organism-based; design: dose 4 mg/kg, route intravenous
[34] = Plasma concentration in fasted Wistar rat at 30 mg/kg, po administered as single dose after 1 hr by HPLC; assay type: ADME, organism-based; design: dose 30 mg/kg, route oral
[35] = Plasma concentration in fasted Wistar rat at 4 mg/kg, po administered as single dose after 2 hrs by HPLC; assay type: ADME, organism-based; design: dose 4 mg/kg, route oral
[36] = Selectivity index, ratio of IC50 for rat L6 cells to IC50 for chloroquine and pyrimethamine-resistant Plasmodium falciparum K1; assay type: toxicity, cell-based; conditions: read-out: Ratio IC50
[37] = tested on: Plasmodium berghei; assay: as §1; assay type: functional; design: scale not given: the % may be the effect or the level left; conditions: route oral
[38] = tested on: Plasmodium berghei; assay: Antimalarial activity recurrence of parasitaemia in Plasmodium berghei NK65 infected ICR mice (Mus musculus) at 4 mg/kg/day intravenous dose for 3 days; assay type: functional, organism-based
[39] = Apparent volume of distribution in Wistar rat at 4 mg/kg, iv administered as single dose; assay type: ADME, organism-based; design: dose 4 mg/kg, route intravenous; conditions: in vivo, read-out: Vz
[40] = tested on: Rattus norvegicus; assay: Apparent volume of distribution in Wistar rat at 4 mg/kg, po administered as single dose; assay type: ADME, organism-based; design: dose 4 mg/kg, route oral; conditions: in vivo
[41] = Tmax in Wistar rat at 30 mg/kg, po administered as single dose; assay type: ADME, organism-based; design: dose 30 mg/kg, route oral; conditions: in vivo

## CCCCN(CCCC)c1ccc2nc3ccc(N4CCCCC4)cc3[o+]c2c1.[Cl-]
[1]
  Activity: Toxic

## CCN(CC)CCCC(C)Nc1ccnc2cc(Cl)ccc12 (configuration not stated) [CHLOROQUINE]
[2]
  MSD: 22.7 days
[3]
  MSD: 9.6 days
[4]
  Activity: 98.4%
[5]
  Activity: 90.6%

## CCCN(CCC)c1ccc2nc3ccc(N4CCCC4)cc3[o+]c2c1.[Cl-]
[6]
  Activity: 99.6%
[7]
  MSD: 14.8 days
[8]
  Activity: 95.2%
[9]
  MSD: 10 days

## CCCCCN(CCCCC)c1ccc2nc3ccc(N4CCCCC4)cc3[o+]c2c1.[Cl-]
[1]
  Activity: Toxic

## CN(C)c1ccc2nc3ccc(N4CCCC4)cc3[o+]c2c1.[Cl-]
[6]
  Activity: 90.3%
[7]
  MSD: 7.8 days
[8]
  Activity: 95.7%
[9]
  MSD: 10 days

## CCCN(CCC)c1ccc2nc3ccc(N4CCSCC4)cc3[o+]c2c1.[Cl-]
[6]
  Activity: 68.9%
[7]
  MSD: 12.5 days
[8]
  Activity: 96.5%
[9]
  MSD: 7 days

## CCCN(CCC)c1ccc2nc3ccc(N4CCCCC4)cc3[o+]c2c1.[Cl-]
[6]
  Activity: 97.6%
[7]
  MSD: 12.3 days
[8]
  Activity: 93.2%
[9]
  MSD: 10.3 days

## CN(C)c1ccc2nc3ccc(N4CCSCC4)cc3[o+]c2c1.[Cl-]
[6]
  Activity: 84.9%
[7]
  MSD: 9.8 days
[8]
  Activity: 94.5%
[9]
  MSD: 11.3 days

## CCCN(CCC)c1ccc2nc3ccc(N4CCOCC4)cc3[o+]c2c1.[Cl-]
[6]
  Activity: 99.5%
[7]
  MSD: 18 days
[8]
  Activity: 95.7%
[9]
  MSD: 10 days

## CCCCCCN(CCCCCC)c1ccc2nc3ccc(N4CCCCC4)cc3[o+]c2c1.[Cl-]
[1]
  Activity: Toxic

## CCN(CC)c1ccc2nc3ccc(N4CCCCC4)cc3[o+]c2c1.[Cl-]
[10]
  half-life: 8.82 h
[11]
  clearance: 44.5 mL/min/kg
[12]
  Activity: 85.9%
[13]
  bioavailability: 60.7%
[14]
  Activity: Active
[15]
  bioavailability: 89.6%
[16]
  Vz: 38.5 L/kg
[17]
  Tmax: 0.99 h
[18]
  half-life: 10.3 h
[19]
  CL/F: 43.3 mL/min/kg
[20]
  Activity: 96.2%
[21]
  Activity: 76%
[22]
  IC50: 2.69 nM
[6]
  Activity: 97.8%
[23]
  concentration at 49 h: 583 ng/mL
[24]
  concentration at 2 h: 158 ng/mL
[25]
  Activity: inactive
[7]
  MSD: 23.3 days
[26]
  Activity: inactive
[27]
  concentration at 1 h: 299 ng/mL
[8]
  Activity: 95.9%
[28]
  CL/F: 43.3 mL/min/kg
[29]
  concentration at 4 h: 96.6 ng/mL
[30]
  concentration at 25 h: 420 ng/mL
[31]
  half-life: 9.84 h
[32]
  concentration at 1 h: 658 ng/mL
[33]
  concentration at 10 min: 468 ng/mL
[34]
  concentration at 1 h: 658 ng/mL
[35]
  concentration at 2 h: 158 ng/mL
[36]
  selectivity ratio: 2390
[37]
  Activity: 90%
[38]
  Activity: inactive
[39]
  Vd: 35.3 L/kg
[9]
  MSD: 12.7 days
[40]
  Vz: 36.9 L/kg
[41]
  Tmax: 0.98 h

## [Cl-].c1cc2nc3ccc(N4CCCCC4)cc3[o+]c2cc1N1CCCCC1
[6]
  Activity: 99.8%
[7]
  MSD: 16.8 days
[8]
  Activity: 97.2%
[9]
  MSD: 11.3 days

## [Cl-].c1cc2nc3ccc(N4CCCC4)cc3[o+]c2cc1N1CCCC1
[6]
  Activity: 95.3%
[7]
  MSD: 8.3 days
[8]
  Activity: 95.4%
[9]
  MSD: 8.3 days

## CN(C)c1ccc2nc3ccc(N4CCCCC4)cc3[o+]c2c1.[Cl-]
[6]
  Activity: 97.8%
[7]
  MSD: 15.5 days
[8]
  Activity: 96.4%
[9]
  MSD: 7.6 days

## CCN(CC)c1ccc2nc3ccc(N4CCSCC4)cc3[o+]c2c1.[Cl-]
[6]
  Activity: 66.3%
[7]
  MSD: 11.5 days
[8]
  Activity: 99.2%
[9]
  MSD: 6.3 days

## CCN(CC)c1ccc2nc3ccc(N4CCOCC4)cc3[o+]c2c1.[Cl-]
[6]
  Activity: 96.3%
[7]
  MSD: 12.3 days
[8]
  Activity: 90%
[9]
  MSD: 13 days
